Values of other authors, collected in patent publication US20150133409A1, “TOPICAL OPHTHALMIC, OTIC, AND NASAL COMPOSITIONS OF CIPROFLOXACIN” (priority 2013, published 2015).
Read-outs that look alike come from different tables or passages of the source.

Conditions: aqueous 0.2 to 1 weight percent ciprofloxacin

## O=C(O)c1cn(C2CC2)c2cc(N3CCNCC3)c(F)cc2c1=O [ciprofloxacin]
5° C.
  pH at which crystalline precipitation of ciprofloxacin occurs: above 5
Room temperature
  pH at which crystalline precipitation of ciprofloxacin occurs: above 5.5
